Reference: publication PMC10060639, “Prediction and bioactivity of small-molecule antimicrobial peptides from Protaetia brevitarsis Lewis larvae” (Frontiers in Microbiology, 2023)
“And” between values parts separate entries of the source, which are not always exact repeats. Equal entries are not always repeated.

Experiments:
E. coli [1] = assay: agar punch method, inhibition circle; format: cell-based, Escherichia coli; conditions: 6 mm hole, 55 μL of 1 mg/mL, NA, 37°C, 16–18 h, mean ± SD, three replicates, + control given per plate group
Description: (§1) Staphylococcus aureus CMCC(B) 26003, B. thuringiensis, E. coli, and P. aeruginosa CMCC(B)10104 were cultured in NA medium and C. albicans CMCC(F) 98001 was cultured in SDA medium. They were incubated in a constant-temperature (bacteria: 37°C; fungi: 28°C) incubator for 16–20 h. Thereafter, single colonies were picked and incubated in 50 mL MHB at 160 rpm/min at the optimal growth temperature (bacteria: 37°C; fungi: 28°C). Microbial suspensions of 1 × 10^6 CFU/mL were then prepared ([Chen et al., 2016]).
(§2) 100 μL of 1 × 10^6 CFU/mL microbial suspension (E. coli, P. aeruginosa CMCC(B)10104, B. thuringiensis, S. aureus CMCC(B) 26003, or C. albicans CMCC(F) 98001) was evenly applied to dishes containing 20 mL NA (bacteria) or SDA (fungi). After the microbial solution solidified, six holes per dish were punched with a sterile pipette tip of 6 mm in diameter, with each hole spaced >20 mm apart and > 10 mm apart from the edge of the dish. […] Next, 55 μL of 1 mg/mL control/treatment was added to each hole and incubated in a constant-temperature (bacteria: 37°C; fungi: 28°C) incubator for 16–18 h ([Chen et al., 2016]; [Gong et al., 2022]), with three replicates for each treatment group. The diameter of the inhibition circle was measured using ImageJ software (National Institutes of Health, United States) in order to preliminarily determine whether the candidate peptides had inhibitory activity.

[2] = tested on: P. aeruginosa CMCC(B)10104; assay: agar punch method, inhibition circle; format: cell-based, Pseudomonas aeruginosa; conditions: 6 mm hole, 55 μL of 1 mg/mL, NA, 37°C, 16–18 h, mean ± SD, three replicates, + control given per plate group, listed as +
Description: as §1, §2

B. thuringiensis = assay: agar punch method, inhibition circle; format: cell-based, Bacillus thuringiensis; conditions: 6 mm hole, 55 μL of 1 mg/mL, NA, 37°C (Fig. S3C: 30°C), 16–18 h, mean ± SD, three replicates, + control given per plate group
Description: as §1, §2

S. aureus CMCC(B) 26003 [3] = assay: agar punch method, inhibition circle; format: cell-based, Staphylococcus aureus; conditions: 6 mm hole, 55 μL of 1 mg/mL, NA, 37°C, 16–18 h, mean ± SD, three replicates, + control given per plate group
Description: as §1, §2

[4] = tested on: C. albicans CMCC(F) 98001; assay: agar punch method, inhibition circle; format: cell-based, Candida albicans; conditions: 6 mm hole, 55 μL of 1 mg/mL, SDA, 28°C, 16–18 h, mean ± SD, three replicates, + control given per plate group
Description: as §1, §2

E. coli [5] = assay: dynamic antimicrobial analysis (OD600 growth over 10 h); format: cell-based, Escherichia coli; conditions: 1/4× MIC, OD600 every hour for 10 h, 37°C, n = 3
Description: (§3) Therefore, the follow-up experiments involved these two bacteria, along with the three AMPs with the best antimicrobial effects (FD10, FD12, and FD15). The dynamic antimicrobial effects were analyzed by measuring the effects of the AMPs on bacterial growth over 10 h. First, 100 μL microbial solution (1.0 × 10^6 CFU/mL) was added to the wells of a 96-well culture plate, and then 100 μL AMP (at 1× and 1/4× MIC) was added and the mixtures were cultured at 37°C ([Mishra et al., 2013]; [Memariani et al., 2016]). 100 μL MHB with 100 μL microbial solution was used as the control group. The optical density at 600 nm (OD600) was measured every hour for 10 h using a microplate reader ([Hou et al., 2007]). The experiment was conducted in triplicate.

S. aureus CMCC(B) 26003 [6] = assay: as above; format: cell-based, Staphylococcus aureus; conditions: 1/4× MIC, OD600 every hour for 10 h, 37°C, n = 3
Description: as §3

[7] = tested on: mouse RAW 264.7 macrophages; assay: cytotoxicity, MTT assay; format: cell-based; conditions: at 256 μg/mL, 24 h incubation, absorbance 570 nm, n = 3
Description: Followed the removing of the MTT, dimethyl sulfoxide (DMSO) (150 μL/well) was added and the absorbance was measured at 570 nm. Untreated cells were used as a control. […] The cytotoxicity detection was repeated in triplicate.

CC1(C)S[C@@H]2[C@H](NC(=O)[C@H](N)c3ccccc3)C(=O)N2[C@H]1C(=O)O [ampicillin, reference compound]
Inhibition circle diameter (mm) E. coli (E. coli [1]): 29.37 mm
Inhibition circle diameter (mm) E. coli (E. coli [1]; listed as +): 27.03 ± 0.47 mm and 27.84 ± 0.30 mm and 30.50 ± 0.21 mm and 29.37 ± 0.31 mm
Inhibition circle diameter (mm) P. aeruginosa CMCC(B)10104 [2]: 15.10 ± 0.43 mm and 16.52 ± 0.55 mm and 16.99 ± 0.39 mm and 14.48 ± 0.29 mm
Inhibition circle diameter (mm) B. thuringiensis (B. thuringiensis): 17.95 ± 0.36 mm and 13.99 ± 0.61 mm and 17.47 ± 0.19 mm and 15.97 ± 0.49 mm
Inhibition circle diameter (mm) S. aureus CMCC(B) 26003 (S. aureus CMCC(B) 26003 [3]): 19.98 mm
Inhibition circle diameter (mm) S. aureus CMCC(B) 26003 (S. aureus CMCC(B) 26003 [3]; listed as +): 14.35 ± 0.49 mm and 15.58 ± 0.58 mm and 16.02 ± 0.34 mm and 19.98 ± 0.42 mm
Inhibition circle diameter (mm) C. albicans CMCC(F) 98001 [4]: 16.16 ± 0.51 mm and 17.74 ± 0.47 mm and 17.80 ± 0.25 mm and 19.69 ± 0.53 mm
time after which E. coli growth began (E. coli [5]): > 1 h
time after which S. aureus CMCC(B) 26003 growth began (S. aureus CMCC(B) 26003 [6]): around 2 h
survival rate of mouse RAW 264.7 macrophages [7]: 84.90%
